Experimental data reported in PubChem BioAssay AID328 (DTP/NCI, 2004).
Several values for one entry are separate records, joined by “and”; a condition that tells them apart may be missing. Identical values can stand only once. Inconclusive results and toxic doses are left out.

Test system: BDF1 mice, P388 leukemia ip, median survival T/C
Test: NCI In Vivo Anticancer Drug Screen. Data for tumor model P388 Leukemia (intraperitoneal) in B6D2F1 (BDF1) mice
Settings: endpoint: median survival time, higher = longer survival
Procedure, shortened: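 Read-out is survival of treated animals expressed relative to the vehicle group, as a T/C ratio.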

[1] = dose: 100.0 mg/kg/injection, schedule: Q04DX003 (ip), vehicle: saline with Tween-80
[2] = dose: 200.0 mg/kg/injection, schedule: Q04DX003 (ip), vehicle: saline with Tween-80
[3] = dose: 400.0 mg/kg/injection, schedule: Q04DX003 (ip), vehicle: saline with Tween-80
[4] = dose: 50.0 mg/kg/injection, schedule: Q01DX005 (ip), vehicle: saline with Tween-80
[5] = dose: 100.0 mg/kg/injection, schedule: Q01DX009 (ip), vehicle: saline with Tween-80
[6] = dose: 200.0 mg/kg/injection, schedule: Q01DX009 (ip), vehicle: saline with Tween-80
[7] = dose: 400.0 mg/kg/injection, schedule: Q01DX009 (ip), vehicle: saline with Tween-80
[8] = dose: 25.0 mg/kg/injection, schedule: Q01DX009 (ip), vehicle: saline
[9] = dose: 50.0 mg/kg/injection, schedule: Q01DX009 (ip), vehicle: saline
[10] = dose: 100.0 mg/kg/injection, schedule: Q01DX009 (ip), vehicle: saline
[11] = dose: 50.0 mg/kg/injection, schedule: Q01DX009 (ip), vehicle: saline with Tween-80
[12] = dose: 100.0 mg/kg/injection, schedule: Q01DX001 (ip), vehicle: Klucel (hydroxypropylcellulose) (HPC)
[13] = dose: 200.0 mg/kg/injection, schedule: Q01DX001 (ip), vehicle: Klucel (hydroxypropylcellulose) (HPC)
[14] = dose: 100.0 mg/kg/injection, schedule: Q01DX009 (ip), vehicle: Klucel (hydroxypropylcellulose) (HPC)
[15] = dose: 200.0 mg/kg/injection, schedule: Q01DX009 (ip), vehicle: Klucel (hydroxypropylcellulose) (HPC)
[16] = dose: 100.0 mg/kg/injection, schedule: Q01DX005 (ip), vehicle: saline with Tween-80
[17] = dose: 200.0 mg/kg/injection, schedule: Q01DX005 (ip), vehicle: saline with Tween-80
[18] = dose: 12.5 mg/kg/injection, schedule: Q01DX009 (ip), vehicle: saline

## CC1(O)C=CC(=O)C=C1
dose: 25.0 mg/kg/injection, schedule: Q01DX009 (ip), vehicle: water
  T/C: 157 % of control
dose: 50.0 mg/kg/injection, schedule: Q01DX009 (ip), vehicle: water
  T/C: 173 % of control

## COc1cc(/C=N/NC(=O)c2cccs2)cc(OC)c1OC
[1]
  T/C: 90 % of control
[2]
  T/C: 90 % of control
[3]
  T/C: 100 % of control

## CN(C)CCCNc1nc(NCCCN(C)C)c2nc(-c3ccccc3)c(-c3ccccc3)nc2n1
[4]
  T/C: 104 % of control

## c1ccc(C2CC3CCCCN3O2)cc1 (stereo unspecified)
dose: 100.0 mg/kg/injection, schedule: Q04DX002 (ip), vehicle: saline with Tween-80
  T/C: 94 % of control
dose: 200.0 mg/kg/injection, schedule: Q04DX002 (ip), vehicle: saline with Tween-80
  T/C: 103 % of control
dose: 400.0 mg/kg/injection, schedule: Q04DX002 (ip), vehicle: saline with Tween-80
  T/C: 86 % of control

## O=c1n(CCCl)c(=O)n(CCCl)c(=O)n1CCCl
[5]
  T/C: 110 % of control
[1]
  T/C: 100 % of control
[6]
  T/C: 110 % of control
[2]
  T/C: 104 % of control
[7]
  T/C: 100 % of control
[3]
  T/C: 104 % of control

## NC(N)=NCCCCC(=O)Nc1ccc(S(N)(=O)=O)cc1
[8]
  T/C: 97 % of control
[9]
  T/C: 112 % of control
[10]
  T/C: 110 % of control

## CN(C)c1ccc(/C=C/c2ccnc3ccc(Cl)cc23)cc1
[11]
  T/C: 100 % of control
[6]
  T/C: 100 % of control

## COc1c(Cl)cc2c(c1OC)N(C)C1N3C(=O)C4(C)SSC3(C(=O)N4C)C(O)C21O (stereo unspecified)
dose: 0.12 mg/kg/injection, schedule: Q01DX009 (ip), vehicle: Klucel (hydroxypropylcellulose) (HPC)
  T/C: 86 % of control
dose: 0.25 mg/kg/injection, schedule: Q01DX009 (ip), vehicle: Klucel (hydroxypropylcellulose) (HPC)
  T/C: 109 % of control

## O=[N+]([O-])c1cccc(N2CN(c3cccc([N+](=O)[O-])c3)CN(c3cccc([N+](=O)[O-])c3)C2)c1
[11]
  T/C: 116 % of control
[5]
  T/C: 106 % of control
[6]
  T/C: 100 % of control

## NC(N)=NC(N)=Nc1ccc(Cl)c(Cl)c1
dose: 25.0 mg/kg/injection, schedule: Q01DX009 (ip), vehicle: saline with Tween-80
  T/C: 98 % of control
[11]
  T/C: 121 % of control

## COc1ccc(NC(=O)Oc2ccccc2Cc2ccccc2)cc1
dose: 100.0 mg/kg/injection, schedule: Q04DX003 (ip), vehicle: Klucel (hydroxypropylcellulose) (HPC)
  T/C: 100 % of control
dose: 200.0 mg/kg/injection, schedule: Q04DX003 (ip), vehicle: Klucel (hydroxypropylcellulose) (HPC)
  T/C: 95 % of control

## CCCCCCC(O)CCc1ccccc1 (stereo unspecified)
[12]
  T/C: 100 % of control
[13]
  T/C: 95 % of control
dose: 400.0 mg/kg/injection, schedule: Q01DX001 (ip), vehicle: Klucel (hydroxypropylcellulose) (HPC)
  T/C: 104 % of control

## O=C(OCCC(OC(=O)c1ccccc1)C(COC(=O)c1ccccc1)OC(=O)c1ccccc1)c1ccccc1 (stereo unspecified)
[14]
  T/C: 87 % of control
[15]
  T/C: 95 % of control

## N#CC1=C(N)NC(=O)C(C(N)=O)C1c1ccccc1Cl (stereo unspecified)
[4]
  T/C: 89 % of control
[16]
  T/C: 92 % of control
[17]
  T/C: 92 % of control

## O=C1C(Cl)=CC(=NS(=O)(=O)c2ccccc2)C=C1Cl
dose: 3.13 mg/kg/injection, schedule: Q04DX003 (ip), vehicle: saline with Tween-80
  T/C: 110 % of control
dose: 6.25 mg/kg/injection, schedule: Q04DX003 (ip), vehicle: saline with Tween-80
  T/C: 110 % of control
dose: 12.5 mg/kg/injection, schedule: Q04DX003 (ip), vehicle: saline with Tween-80
  T/C: 110 % of control

## OCCN1CCNC1=S
dose: 100.0 mg/kg/injection, schedule: Q04DX003 (ip), vehicle: saline
  T/C: 95 % of control
dose: 200.0 mg/kg/injection, schedule: Q04DX003 (ip), vehicle: saline
  T/C: 91 % of control
dose: 400.0 mg/kg/injection, schedule: Q04DX003 (ip), vehicle: saline
  T/C: 91 % of control

## O=C(O)c1ccc2c3c(cccc13)CC2
dose: 25.0 mg/kg/injection, schedule: Q01DX001 (ip), vehicle: saline sonified
  T/C: 100 % of control
dose: 50.0 mg/kg/injection, schedule: Q01DX001 (ip), vehicle: saline sonified
  T/C: 100 % of control
dose: 100.0 mg/kg/injection, schedule: Q01DX001 (ip), vehicle: saline sonified
  T/C: 104 % of control

## O=C(CCCCN1CCc2[nH]c3ccc(F)cc3c2C1)c1ccc(F)cc1
[12]
  T/C: 116 % of control
[13]
  T/C: 100 % of control

## CCCCOC1OCN(CCOC)CC1(C)C (stereo unspecified)
[11]
  T/C: 109 % of control
[9]
  T/C: 116 % of control
[10]
  T/C: 109 % of control
[6]
  T/C: 153 % of control
dose: 200.0 mg/kg/injection, schedule: Q01DX009 (ip), vehicle: saline
  T/C: 118 % of control

## COC(=O)c1c(C)ccc2c(O)c3c(cc12)C(=O)c1c2c(cc(O)c1C3=O)C1(C)OC(C)(O2)C(O)C(N(C)C)C1O (stereo unspecified)
dose: 70.0 mg/kg/injection, schedule: Q01DX009 (ip), vehicle: Klucel (hydroxypropylcellulose) (HPC)
  T/C: 150 % of control
dose: 140.0 mg/kg/injection, schedule: Q01DX009 (ip), vehicle: Klucel (hydroxypropylcellulose) (HPC)
  T/C: 111 % of control

## O=C(CNC(=O)n1ccnc1)N/N=C/c1ccccc1O
[4]
  T/C: 102 % of control
[16]
  T/C: 98 % of control
[17]
  T/C: 100 % of control

## CC(=O)c1c(C)c([N+](=O)[O-])c(C(C)(C)C)c([N+](=O)[O-])c1C
[15]
  T/C: 91 % of control and 100 % of control
dose: 400.0 mg/kg/injection, schedule: Q01DX009 (ip), vehicle: Klucel (hydroxypropylcellulose) (HPC)
  T/C: 100 % of control and 123 % of control

## C(=C\c1ccc2ccccc2n1)/c1ccc2c(c1)OCO2
[1]
  T/C: 100 % of control
[2]
  T/C: 100 % of control
[3]
  T/C: 88 % of control

## CN1c2ccc3ccccc3c2Sc2ccc3ccccc3c21
[5]
  T/C: 113 % of control
[1]
  T/C: 100 % of control
[6]
  T/C: 104 % of control
[2]
  T/C: 95 % of control
[7]
  T/C: 104 % of control
[3]
  T/C: 90 % of control

## Cc1ncnc2c1CCC2
[11]
  T/C: 97 % of control
[5]
  T/C: 111 % of control
[1]
  T/C: 109 % of control
[6]
  T/C: 87 % of control
[2]
  T/C: 95 % of control

## CCN(CC)CCOC(=O)C(c1ccccc1)C1(O)CCCC(C)C1 (stereo unspecified)
dose: 50.0 mg/kg/injection, schedule: Q01DX005 (ip), vehicle: saline
  T/C: 98 % of control
dose: 100.0 mg/kg/injection, schedule: Q01DX005 (ip), vehicle: saline
  T/C: 90 % of control
dose: 200.0 mg/kg/injection, schedule: Q01DX005 (ip), vehicle: saline
  T/C: 110 % of control

## O=[N+]([O-])c1cccc2c[n+](Cc3ccc(Br)cc3)ccc12
dose: 12.5 mg/kg/injection, schedule: Q01DX009 (ip), vehicle: saline with Tween-80
  T/C: 123 % of control

## NC(=O)c1c(F)c(F)c(F)c(F)c1F
dose: 100.0 mg/kg/injection, schedule: Q01DX001 (ip), vehicle: saline with Tween-80
  T/C: 107 % of control
dose: 200.0 mg/kg/injection, schedule: Q01DX001 (ip), vehicle: saline with Tween-80
  T/C: 115 % of control
dose: 400.0 mg/kg/injection, schedule: Q01DX001 (ip), vehicle: saline with Tween-80
  T/C: 110 % of control

## CCCCCC(CN(C)C)C(O)/C=C/c1ccccc1Cl (stereo unspecified)
dose: 3.12 mg/kg/injection, schedule: Q01DX009 (ip), vehicle: saline
  T/C: 110 % of control
dose: 6.25 mg/kg/injection, schedule: Q01DX009 (ip), vehicle: saline
  T/C: 100 % of control
[18]
  T/C: 105 % of control
[8]
  T/C: 107 % of control
[9]
  T/C: 117 % of control

## Cn1cnc([N+](=O)[O-])c1Sc1ncnc2c1ncn2C1OC(CO)C(O)C1O (stereo unspecified)
dose: 50.0 mg/kg/injection, schedule: Q01DX009 (ip), vehicle: Klucel (hydroxypropylcellulose) (HPC)
  T/C: 113 % of control
[14]
  T/C: 154 % of control
[15]
  T/C: 122 % of control

## CCNNC(=O)[C@@H]1[C@H](c2cc(OC)c(OC)c(OC)c2)c2cc3c(cc2[C@H](O)[C@H]1CO)OCO3
[18]
  T/C: 109 % of control
[8]
  T/C: 100 % of control
[11]
  T/C: 116 % of control
[9]
  T/C: 122 % of control
[5]
  T/C: 90 % of control
[1]
  T/C: 108 % of control
[6]
  T/C: 90 % of control
[2]
  T/C: 104 % of control

## CCCCCCCCCCCC[S+](C)C
dose: 10.0 mg/kg/injection, schedule: Q01DX010 (ip), vehicle: saline
  T/C: 116 % of control
dose: 10.0 mg/kg/injection, schedule: Q04DX003 (ip), vehicle: saline
  T/C: 120 % of control
dose: 20.0 mg/kg/injection, schedule: Q01DX010 (ip), vehicle: saline
  T/C: 112 % of control
dose: 20.0 mg/kg/injection, schedule: Q04DX003 (ip), vehicle: saline
  T/C: 120 % of control
